Measured values taken from patent US20240009170A1, “INHIBITION OF GLYCOGEN SYNTHASE KINASE-3 (GSK-3)” (Brown University, priority 2020, published 2024).

Experiments:
[1] = test system: HCT-116 colorectal cancer cells; experiment: Co-culture of HCT-116 and NK-92 cells with or without αPD-1 therapy; format: cell-based, Human; details: not statistically significant
Description: (§1) Immune cell co-culture experiments. Co-culture experiments were conducted with GFP+ SW480 or HCT-116 colorectal cancer cells and either NK-92 natural killer cells or TALL-104 T cells in a 48-well plate, in the presence or absence of 9-ING-41. HCT-116 cells were labeled using CellTracker™ Green CMFDA (5-chloromethylfluorescein diacetate), immune cells (NK-92, TALL-104) were labeled using CellTracker™ Blue CMAC Dye (7-amino-4-chloromethylcoumarin), and ethidium homodimer-1 (EthD-1) was used as a marker of cell death (Invitrogen, Thermo Fisher Scientific, Waltham, MA, USA).

[2] = test system: HCT-116 colorectal cancer cells; experiment: Co-culture of HCT-116 and TALL-104 cells with or without αPD-1 therapy; format: cell-based, Human; details: for TALL-104-mediated tumor cell killing: αPD-1 antibody added to co-culture, compared to TALL-104 cells alone
Description: as §1
9-ING-41 increases tumor cell death in combination with αPD-1 therapy in a co-culture of HCT-116 colorectal cancer cells and immune cells. The inventors were interested in the applicability of GS3K-3 inhibitors such as 9-ING-41 in combination with immune checkpoint blockade. The inventors next performed co-cultures of immune cells (TALL-104, NK-92) and tumor cells (HCT-116) in the presence or absence of 9-ING-41, as well as either pembrolizumab® or nivolumab®, two humanized monoclonal antibodies against PD-1. The inventors evaluated HCT-116 cells in this co-culture model to determine if the 9-ING-41-mediated increase in immune cell-mediated SW480 cell killing could be reproduced in another colorectal cancer cell line.

GSK-3 = details: cited from earlier work

| Molecule | benefit in combination with NK-92 compared to NK-92 alone [1] | TALL-104-mediated tumor cell killing [2] | therapeutic index (GSK-3) | cell death, pembrolizumab+TALL-104 compared to nivolumab+TALL-104 [2] |
| --- | --- | --- | --- | --- |
| nivolumab®: humanized monoclonal antibody against PD-1 | limited benefit | increased amount of TALL-104-mediated tumor cell killing | – | – |
| [Li] [Lithium] | – | – | narrow therapeutic index | – |
| pembrolizumab®: humanized monoclonal antibody against PD-1 | limited benefit | increased amount of TALL-104-mediated tumor cell killing | – | slight increase in cell death |
